Source: patent US20240166652A1, “MODULATORS OF THE INTEGRATED STRESS PATHWAY” (Calico Life Sciences LLC, priority 2017, published 2024)

tested on: ATF4 luciferase reporter in HEK293T cells; experiment: ATF4-Luc assay (ATF4 luciferase reporter, tunicamycin-treated HEK293T cells); type: cell-based, human; conditions: Homo sapiens, HEK-293T; HEK293T cells carrying the ATF4 luciferase reporter, 1 μg/mL tunicamycin, 7 hours

**Q.** For O=C(COc1cc(F)c2cn[nH]c2c1)NC12CCC(NC(=O)COc3ccc(F)c(F)c3)(CC1)[C@@H](O)C2 [Compound 728, 2-(3,4-difluorophenoxy)-N-[(2S)-4-{2-[(4-fluoro-1H-indazol-6-yl)oxy]acetamido}-2-hydroxybicyclo[2.2.2]octan-1-yl]acetamide], which EC50 is on record?
**A.** < 0.01 µM

**Q.** Which EC50 does the source give for O=C(COc1ccc(S(F)(F)(F)(F)F)nc1)NC12CCC(NC(=O)COc3ccc(Cl)c(F)c3)(CC1)[C@@H](O)C2 [Compound 838, 2-(4-chloro-3-fluorophenoxy)-N-[(2S)-2-hydroxy-4-(2-{[6-(pentafluoro-lambda^6-sulfanyl)pyridin-3-yl]oxy}acetamido)bicyclo[2.2.2]octan-1-yl]acetamide] here?
**A.** < 0.01 µM

**Q.** For CO[C@@H]1C[C@]2(NC(=O)COc3ccc(Cl)c(F)c3)CC[C@@]1(NC(=O)COc1ccc(Cl)c(F)c1)CC2=O (racemic) [Compound 556, rac-N,N′-[(1R,2R,4R)-2-methoxy-5-oxobicyclo[2.2.2]octane-1,4-diyl]bis[2-(4-chloro-3-fluorophenoxy)acetamide]], which EC50 is on record?
**A.** 0.01 to 0.05 µM

**Q.** How did the EC50 turn out when Cc1ccc(OCC(=O)NC23CCC(NC(=O)COc4ccc(Cl)c(F)c4)(CC2)C[C@@H]3O)cc1 [Compound 521, 2-(4-chloro-3-fluorophenoxy)-N-{(3S)-3-hydroxy-4-[2-(4-methylphenoxy)acetamido]bicyclo[2.2.2]octan-1-yl}acetamide] was run?
**A.** < 0.01 µM

**Q.** With O=C(COc1ccc(Cl)c(F)c1)NC12CC(NC(=O)COc3cc(F)c(F)cc3F)(C1)C2 [Compound 414, 2-(4-chloro-3-fluorophenoxy)-N-{3-[2-(2,4,5-trifluorophenoxy)acetamido]bicyclo[1.1.1]pentan-1-yl}acetamide] as the compound, how does the EC50 read?
**A.** < 0.01 µM

**Q.** With Cc1ccc(OCC(=O)NC23CC(NC(=O)COc4ccc(Cl)c(F)c4)(C2)C3)cn1 [Compound 206, 2-(4-chloro-3-fluorophenoxy)-N-(3-{2-[(6-methylpyridin-3-yl)oxy]acetamido}bicyclo[1.1.1]pentan-1-yl)acetamide] as the compound, how does the EC50 read?
**A.** 0.05 to 0.25 µM

**Q.** Which EC50 does the source give for O=C(CCCOc1cccc(Cl)c1)NC12CC(NC(=O)COc3ccc(Cl)c(Cl)c3)(C1)C2 [Compound 168, 4-(3-chlorophenoxy)-N-{3-[2-(3,4-dichlorophenoxy)acetamido]-bicyclo[1.1.1]pentan-1-yl}butanamide] here?
**A.** 0.05 to 0.25 µM

**Q.** Which EC50 does the source give for O=C(COc1ccc(Cl)c(F)c1)NC12CC(NC(=O)COc3ccc(C(F)(F)F)nn3)(C1)C2 [Compound 256, 2-(4-chloro-3-fluorophenoxy)-N-[3-(2-{[6-(trifluoromethyl)pyridazin-3-yl]oxy}acetamido)bicyclo[1.1.1]pentan-1-yl]acetamide] here?
**A.** 0.05 to 0.25 µM

**Q.** For O=C(COCc1ccc(Cl)cc1)NC12CC(NC(=O)COc3ccc(Cl)c(Cl)c3)(C1)C2 [Compound 156, 2-[(4-chlorophenyl)methoxy]-N-{3-[2-(3,4-dichlorophenoxy)acetamido]-bicyclo[1.1.1]pentan-1-yl}acetamide], which EC50 is on record?
**A.** 0.01 to 0.05 µM

**Q.** How did the EC50 turn out when O=C(COc1ccc(Cl)c(F)c1)NC12CC(NC(=O)COc3ccc(F)cc3F)(C1)C2 [Compound 409, 2-(4-chloro-3-fluorophenoxy)-N-{3-[2-(2,4-difluorophenoxy)acetamido]bicyclo[1.1.1]pentan-1-yl}acetamide] was run?
**A.** < 0.01 µM

**Q.** Which EC50 does the source give for CCCN1C(=O)C2(NC(=O)COc3ccc(Cl)c(F)c3)CCC1(NC(=O)COc1ccc(Cl)c(F)c1)CC2 [Compound 677, N,N′-(3-oxo-2-propyl-2-azabicyclo[2.2.2]octane-1,4-diyl)bis[2-(4-chloro-3-fluorophenoxy)acetamide]] here?
**A.** 0.5 to 2 µM

**Q.** With N#CC(COc1ccc(Cl)cc1)NC12CCC(NC(=O)COc3ccc(Cl)c(F)c3)(CC1)[C@@H](O)C2 (stereo partly drawn) [Compound 699, 2-(4-chloro-3-fluorophenoxy)-N-[(2S)-4-{[2-(4-chlorophenoxy)-1-cyanoethyl]amino}-2-hydroxybicyclo[2.2.2]octan-1-yl]acetamide] as the compound, how does the EC50 read?
**A.** 0.01 to 0.05 µM

**Q.** With COC(=O)c1cc(OCC(=O)NC23CCC(NC(=O)COc4ccc(Cl)c(C(=O)OC)c4)(CC2)[C@@H](O)C3)ccc1Cl [Compound 594, dimethyl 3,3′-{[(2S)-2-hydroxybicyclo[2.2.2]octane-1,4-diyl]bis[azanediyl(2-oxoethane-2,1-diyl)oxy]}bis(6-chlorobenzoate)] as the compound, how does the EC50 read?
**A.** > 2 µM

**Q.** O=C(COc1ccc(Cl)c(F)c1)NC12CC(NS(=O)(=O)Cc3ccc(F)c(F)c3)(C1)C2 [Compound 483, 2-(4-chloro-3-fluorophenoxy)-N-(3-{[(3,4-difluorophenyl)methanesulfonyl]amino}bicyclo[1.1.1]pentan-1-yl)acetamide] was tested. Which EC50 did it give?
**A.** > 2 µM

**Q.** How did the EC50 turn out when COc1ccc(OCC(=O)NC23CC(NC(=O)COc4ccc(Cl)c(F)c4)(C2)C3)c(C)n1 [Compound 252, 2-(4-chloro-3-fluorophenoxy)-N-(3-{2-[(6-methoxy-2-methylpyridin-3-yl)oxy]acetamido}bicyclo[1.1.1]pentan-1-yl)acetamide] was run?
**A.** 0.05 to 0.25 µM

**Q.** For N#Cc1ncc(OCC(=O)NC23CCC(NC(=O)COc4ccc(Cl)c(F)c4)(CC2)[C@@H](O)C3)cn1 [Compound 623, 2-(4-chloro-3-fluorophenoxy)-N-[(2S)-4-{2-[(2-cyanopyrimidin-5-yl)oxy]acetamido}-2-hydroxybicyclo[2.2.2]octan-1-yl]acetamide], which EC50 is on record?
**A.** 0.01 to 0.05 µM

**Q.** How did the EC50 turn out when O=C(COn1nnc2cccnc21)NC12CCC(NC(=O)COc3ccc(Cl)c(F)c3)(CC1)C(=O)N2 [Compound 691, 2-(4-chloro-3-fluorophenoxy)-N-(3-oxo-1-{2-[(3H-[1,2,3]-triazolo[4,5-b]pyridin-3-yl)oxy]acetamido}-2-azabicyclo[2.2.2]octan-4-yl)acetamide] was run?
**A.** > 2 µM

**Q.** For O=C(COc1ccc(C(F)(F)F)nc1)NC12CCC(NC(=O)COc3ccc(Cl)c(Cl)c3)(C1)C2 [Compound 196, 2-(3,4-dichlorophenoxy)-N-[4-(2-{[6-(trifluoromethyl)pyridin-3-yl]oxy}acetamido)bicyclo[2.1.1]hexan-1-yl]acetamide], which EC50 is on record?
**A.** 0.01 to 0.05 µM

**Q.** For O=C(COc1ccc(Cl)c(F)c1)NC12CCC(NC(=O)COc3ccc(Cl)c(F)c3)(CC1)C(O)(CO)C2 (stereo not shown) [Compound 644, N,N′-[2-hydroxy-2-(hydroxymethyl)bicyclo[2.2.2]octane-1,4-diyl]bis[2-(4-chloro-3-fluorophenoxy)acetamide]], which EC50 is on record?
**A.** < 0.01 µM

**Q.** Which EC50 does the source give for O=C(COc1ccc(Cl)c(F)c1)NC12CCC(NS(=O)(=O)Cc3ccc(C(F)(F)F)cc3)(CC1)[C@@H](O)C2 [Compound 429, 2-(4-chloro-3-fluorophenoxy)-N-[(3S)-3-hydroxy-4-({[4-(trifluoromethyl)phenyl]methanesulfonyl}amino)bicyclo[2.2.2]octan-1-yl]acetamide] here?
**A.** 0.05 to 0.25 µM

**Q.** With COCC(=O)Nc1cc(Cl)ccc1OCC(=O)NC12CC(NC(=O)COc3ccc(Cl)c(F)c3)(C1)C2 [Compound 800, 2-(4-chloro-3-fluorophenoxy)-N-(3-{2-[4-chloro-2-(2-methoxyacetamido)phenoxy]acetamido}bicyclo[1.1.1]pentan-1-yl)acetamide] as the compound, how does the EC50 read?
**A.** 0.05 to 0.25 µM

**Q.** With Cc1cc(CC(=O)NC23CCC(NC(=O)COc4ccc(Cl)c(F)c4)(CC2)C(O)C3)on1 (stereo not shown) [Compound 423, 2-(4-chloro-3-fluorophenoxy)-N-{2-hydroxy-4-[2-(3-methyl-1,2-oxazol-5-yl)acetamido]bicyclo[2.2.2]octan-1-yl}acetamide] as the compound, how does the EC50 read?
**A.** > 2 µM
